From patent publication US5104859A, “Continuous administration of adenosine to reduce pulmonary vascular resistance” (priority 1990, dated 1992)
Several values for one entry are separate records, joined by “and”; a condition that tells them apart may be missing. Identical values can stand only once. Entries after “also recorded” stand apart in the source; their conditions may differ.

What was measured:
[1] = tested on: systemic arterial blood pressure and central hemodynamics; assay: Controlled hypotension during anesthesia: central hemodynamics (dipyridamole-pretreated cerebral aneurysm surgery patients); conditions: for tachyphylaxis: constant infusion rate during hypotension
Description: One hour before the operation the patients were premedicated orally with diazepam (10-20 mg.) Atropine (0.5 mg) and droperidol (0.1 mg. per kg.) were given intravenously before induction of anesthesia. Induction was started with thiopental (5 mg. per kg) followed by phenoperidine (1-2 mg), a synthetic opiate with pharmacodymanics resembling fentanyl but with a longer duration of action and 1/10 of its analgesic potency.
Pancuronium bromide (0.1 mg per kg) was given to facilitate endotracheal intubation. Anesthesia was maintained by supplementary doses of phenoperidine and droperidol, as required. […] Phenoperidine was supplemented regularly to prevent the blood pressure from exceeding the preanesthetic level (approx. 1 mg/30-60 min). Controlled hyperventilation was employed with a humidified gas mixture of 60% N2 O in oxygen to maintain PaCO2 values at approximately 30 mmHg (±1.5/SEM). Mannitol (1-1.5 g. per kg) was given routinely at the start of the operation (e.g., 1-2 hours prior to the controlled hypotension). The patients were operated on in the horizontal supine position.
A 1.2-mm plastic cannula was introduced into the left radial artery to monitor systemic arterial blood pressure (MABP) and collect arterial blood. A balloon-tipped, flow-directed, quadruple lumen Swan-Ganz catheter (Model 93A-831-7.5 F, VIP) was inserted percutaneously via the left basilic vein, and its correct position in the pulmonary artery was determined by pressure tracings. The catheter was used for the monitoring of mean right atrial pressure (RAP), mean pulmonary artery pressure (PAP), and mean pulmonary capillary wedge pressure (PCWP) for the determination of cardiac output and collection of mixed venous blood and for the infusion of adenosine. Another plastic cannula was introduced percutaneously, in a retrograde direction, into the right jugular bulb for the collection of blood. The correct position was verified by x-ray.
The ECG was monitored with a standard chest (V5) lead. Heart rate was determined from the R-R interval. Blood pressures were measured by transducers placed at the midthoracic level. Cardiac output (QT) was determined in triplicate according to the thermodilution technique with a cardiac output computer (Edwards Lab, model 9510). Isotonic glucose, 10 ml at 1° C., was used as a thermal indicator. The ECG, heart rate, blood pressures, and thermodilution curves were recorded on a Grass® polygraph.
Measurements and blood samplings were performed immediately before hypotension, as late as possible during hypotension (1-5 min before terminating the infusion) and approximately 30 min after the hypotensive period.
Dipyridamole (5 mg. per ml) was infused iv (0.3-0.4 mg. per kg. over a period of 5-10 min) approximately 20 minutes prior to the induction of controlled hypotension. […] (See Pedersen, J. Chromatogr., 162: 98-103 (1979).
The infusion was started at a rate of 0.01 mg. per kg. per minute, which was doubled at 15 second intervals until the desired MABP level of 40-50 mmHg was reached. […] Serum creatinine was determined before and on two consecutive days after operation. The standard ECG was recorded the day before and the day after operation.
Systemic vascular resistance (SVR) was derived from the formula [formula] and pulmonary vascular resistance (PVR) from the formula [formula]
The statistical significance (control 1 vs. adenosine and control 1 vs. control 2) was determined by Student's t test for paired data. A P value of <0.05 was regarded as significant.

[2] = tested on: coronary bypass grafts; assay: Coronary bypass graft flow and hemodynamics during coronary artery surgery
Description: It has been reported that coronary artery grafts occlude more frequently during the postoperative period when low graft-flow values are obtained during surgery. See Groudin et al, Circulation, 42: Suppl 3: 106-111 (1970).
In a study designed to investigate the use of adenosine to inhibit occlusion of coronary grafts, nine patients (age 45-65, all taking beta-blockers) were studied during coronary artery surgery. After premedication, morphine (10-15 mg) and scopolamine (0.4-0.6 mg), anesthesia was induced by fentanyl (30 mcg/kg.b.w.). Pancuronium (0.1 mg/kg b.w.) was given to facilitate endotracheal intubation. Anesthesia was maintained with fentanyl 0.5 mg/hour, N2 O (50%) in oxygen and droperidol (0.1 mg/kg b.w.). During bypass thiomebumal (5 mg/kg b.w.) was given. Nitrous oxide was not used after bypass. Extracorporeal circulation (ECC) was performed with a roller pump and a Shiley bubble oxyqenator primed with crystalloid solution. ECG (modified V5), an arterial line and a Swan-Ganz Catheter were used for monitoring and for hemodynamic measurements. Blood flow in bypass grafts (n=15, internal mammary and venous grafts), was measured with appropriate sized square wave electromagnetic flow probes (Nycotron 732). The study was performed 20-30 minutes after the termination of ECC. After a control period (5 min), adenosine (5.3 mg/ml. clinical solution) was continuously infused in a central vein in order to induce approximately 10% reduction of mean arterial blood pressure (about 30 to 50 ug per kg. per min.). Graft flow was continuously measured before and during a 10 or 30 minute infusion of adenosine and finally during the following 5 minute control period. Data are expressed as mean ±SEM and differences were tested with Student's paired t-test against the preceding period.

[3] = Control 2, 30 min after hypotension

Structure (SMILES): Nc1ncnc2c1ncn2[C@@H]1O[C@H](CO)[C@@H](O)[C@H]1O [adenosine]
- PVR during adenosine [1]: unchanged
- RAP, PAP and PCWP [1]: not influenced
- decrease in MABP [1]: 43±3%
- decrease in SVR [1]: 61±3%
- increase in cardiac output [1]: 44±9%
- increase in heart rate [1]: 9±2 beats per minute
- Cardiac output [1, 3]: 5.17 ± 0.54 liters per min.
- Diastolic blood pressure [1, 3]: 71 ± 3 mmHg
- Mean arterial blood pressure [1, 3]: 91 ± 4 mmHg
- Pulmonary artery pressure [1, 3]: 14.7 ± 1.4 mmHg
- Pulmonary capillary wedge pressure [1, 3]: 9.9 ± 1.4 mmHg
- Pulmonary vascular resistance [1, 3]: 0.97 ± 0.15 mmHg per liter min.
- Right atrial pressure [1, 3]: 5.6 ± 0.8 mmHg
- Systolic blood pressure [1, 3]: 130 ± 7 mmHg
- heart rate [1, 3]: 58 ± 3 beats per min.
- rebound hypertension ([1]; after discontinuation of infusion): did not occur
- tachyphylaxis [1]: without evidence of tachyphylaxis
- tachyphylaxis ([1]; listed as Adenosine): absence of tachyphylaxis
- SVR during adenosine ([1]; decreased from 16.7): 6.2 mmHg per liter a minute
- Cardiac output ([1]; during adenosine): 6.86 ± 0.71 liters per min.
- Diastolic blood pressure ([1]; during adenosine): 34 ± 2 mmHg
- Mean arterial blood pressure ([1]; during adenosine): 46 ± 2 mmHg and 46 mmHg
- Pulmonary artery pressure ([1]; during adenosine): 16.5 ± 0.9 mmHg
- Pulmonary capillary wedge pressure ([1]; during adenosine): 11.0 ± 1.0 mmHg
- Pulmonary vascular resistance ([1]; during adenosine): 0.82 ± 0.08 mmHg per liter min.
- Right atrial pressure ([1]; during adenosine): 7.2 ± 0.7 mmHg
- Systolic blood pressure ([1]; during adenosine): 78 ± 6 mmHg
- heart rate ([1]; during adenosine): 63 ± 3 beats per min.
- cardiac output during adenosine ([1]; increased from 4.9): 6.9 1 per minute
- MABP increase after hypotension vs control period ([1]; persistently higher after hypotension): approximately 10 mmHg
- time to decrease in MABP ([1]; within): 1 to 2 min
- time to restoration of MABP after discontinuation ([1]; within): 1 to 5 min
- graft blood flow, post-operative low dose ([2]; 0.02 to 0.05 mg/kg/min, words): increase graft blood flow
- graft flow ([2]; 30-50 ug per kg per min): doubled graft flow; also recorded: marked and reproducible increase in graft flow
- myocardial work ([2]; 30-50 ug per kg per min): without increased myocardial work
- arrhythmias ([2]; 49±4 ug/kg/minute): No arrhythmias were observed
- heart rate, mean pulmonary artery pressure, central venous pressure, stroke index and left ventricular stroke work index ([2]; 49±4 ug/kg/minute): remained essentially unchanged
- increase of cardiac output ([2]; 49±4 ug/kg/minute): 12%
- reduction of mean arterial pressure ([2]; 49±4 ug/kg/minute): 12%
- Cardiac output ([2]; control after adenosine): 5.3 ± 0.3 L/min
- Left Ventricular Stroke Index ([2]; control after adenosine): 0.49 ± 0.04 Joule/n^2
- Mean Arterial Pressure ([2]; control after adenosine): 85 ± 3 mmHg
- Pulmonary Artery Pressure (mean) ([2]; control after adenosine): 19.9 ± 1.0 mmHg
- RAP (mean) ([2]; control after adenosine): 5.8 ± 0.7 mmHg
- Stroke Index ([2]; control after adenosine): 39.6 ± 2.5 ml/m^2
- heart rate ([2]; control after adenosine): 81 ± 6 beats/min.
- graft flow ([2]; control after adenosine, n = 15): 39 ± 5 mL/min
- Cardiac output ([2]; during adenosine): 5.6 ± 0.3 L/min
- Left Ventricular Stroke Index ([2]; during adenosine): 0.41 ± 0.03 Joule/n^2
- Mean Arterial Pressure ([2]; during adenosine): 74 ± 3 mmHg
- Pulmonary Artery Pressure (mean) ([2]; during adenosine): 18.8 ± 1.2 mmHg
- RAP (mean) ([2]; during adenosine): 5.3 ± 0.4 mmHg
- Stroke Index ([2]; during adenosine): 38.8 ± 2.0 ml/m^2
- heart rate ([2]; during adenosine): 82 ± 15 beats/min.
- graft flow ([2]; during adenosine, n = 15): 77 ± 7 mL/min
- graft flow rate on termination of adenosine ([2]; in vivo): restored to its original value
- atrio-ventricular conductance at low dose ([2]; post-operative low doses, words): without significant effect on atrio-ventricular conductance
